In publication PMC7933930, “Development of a small molecule that corrects misfolding and increases secretion of Z α1‐antitrypsin” (EMBO Molecular Medicine, 2021):
Read-outs that look alike come from different tables or passages of the source.

Tests used:
α1‐antitrypsin = assay: SYPRO Orange thermal shift assay; format: biochemical, human; details: 50μM GSK716
From the text: Polymerisation of α1‐antitrypsin involves transition through a transient intermediate state known as M*, that is readily populated by the Z variant (Dafforn et al, 1999; Knaupp et al, 2010). The M* conformational ensemble appears to be a distinct species between the native state conformation and that of the final polymer. One of the hallmarks of M* is its recognition by environment‐sensitive fluorescent reporter dyes. Thermal shift assays that make use of the dye SYPRO Orange report the stability of the protein native state against heat‐induced unfolding. […] Native state stability can also be probed by equilibrium unfolding using chemical denaturants, where a peak in bis‐ANS fluorescence corresponds with a maximally populated unfolding intermediate (James & Bottomley, 1998). […] The association of GSK716 induced a marked quenching and blue‐shift of the α1‐antitrypsin intrinsic tryptophan fluorescence spectrum (Fig 4D, inset). The rate of change in fluorescence during association of 10µM GSK716 was proportional to the propensity of α1‐antitrypsin mutants to form polymers in vivo: inert (M), mild (S), moderate (Baghdad) and severe (Z) α1‐antitrypsin (Fig 4D, top and bottom). […]

P-gp (MDR1) = assay: Permeability in MDR1‐MDCK cells with pgp inhibitor; format: in vitro ADME; details: dog
Method: Permeability in MDR1‐MDCK cells in the presence of pgp inhibitor GF120918 was high at 248 and 240 nm/s for the apical to basal and basal to apical directions, respectively (N53531‐23 for DI).
MDR1‐MDCK cells were used between passage numbers 6–30. Cells were seeded onto Millipore Multiscreen Transwell plates at 3.4 × 10^5 cells/cm^2. The cells were cultured in DMEM and media was changed on day 3. On day 4 the permeability study was performed. Cell culture and assay incubations were carried out at 37°C in an atmosphere of 5% v/v CO2 with a relative humidity of 95%. On the day of the assay, the monolayers were prepared by rinsing both apical and basolateral surfaces twice with Hanks Balanced Salt Solution (HBSS) at the desired pH warmed to 37°C. Cells were then incubated with HBSS at the desired pH in both apical and basolateral compartments for 40 min to stabilise physiological parameters. Where applicable, a P‐gp inhibitor (elacridar, 2 µM) was included on both sides of the monolayer for the equilibration period. For assessment of apical‐basolateral permeability, HBSS was removed from the apical compartment and replaced with test compound dosing solution. The apical compartment insert was then placed into a companion plate containing fresh buffer (containing 0.5% v/v DMSO or, where applicable, a P‐gp inhibitor, maintaining a 0.5% v/v DMSO concentration). […]

Cycloxygenase2 (COX2) = Cycloxygenase2 (COX2) (Homo sapiens, UniProt P35354); assay: Off‐target panel: Cycloxygenase2 (COX2); format: biochemical; details: Inhibition, read-out: Mean (PXC50)
Cycloxygenase2 (COX2), sequence (P35354 18-604): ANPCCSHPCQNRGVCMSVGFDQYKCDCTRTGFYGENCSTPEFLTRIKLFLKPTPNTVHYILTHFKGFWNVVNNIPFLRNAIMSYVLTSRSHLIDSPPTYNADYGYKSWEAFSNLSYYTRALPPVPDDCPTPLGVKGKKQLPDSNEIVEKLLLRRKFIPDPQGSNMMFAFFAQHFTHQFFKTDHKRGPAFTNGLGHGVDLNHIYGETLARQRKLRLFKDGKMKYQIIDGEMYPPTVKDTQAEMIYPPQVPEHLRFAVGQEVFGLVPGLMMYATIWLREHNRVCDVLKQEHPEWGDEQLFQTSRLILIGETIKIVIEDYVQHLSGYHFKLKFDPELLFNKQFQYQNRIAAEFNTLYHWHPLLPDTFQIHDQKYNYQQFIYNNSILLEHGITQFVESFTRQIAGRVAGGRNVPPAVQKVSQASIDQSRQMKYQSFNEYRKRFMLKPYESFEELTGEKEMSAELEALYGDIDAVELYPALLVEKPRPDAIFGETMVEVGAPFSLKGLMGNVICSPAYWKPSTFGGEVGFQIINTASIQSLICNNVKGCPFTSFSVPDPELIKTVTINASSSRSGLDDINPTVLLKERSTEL
Method: (§1) GSK716 selectivity and PK properties were profiled in order to investigate the suitability of GSK716 for progression into in vivo studies and the potential for taking it forward as a clinical candidate for testing in humans. Since GSK716 results in loss of inhibitory activity of α1‐antitrypsin, the effect of the compound was assessed on other closely related serpins. […] Furthermore, there were no off‐target effects in a panel of assays considered predictive of known safety liabilities that precluded further development of GSK716 (Table EV1).

OPRM1 = OPRM1 (Homo sapiens, UniProt P35372); assay: Off‐target panel: OPRM1; format: cell-based
OPRM1, sequence (P35372 whole entry, species assumed): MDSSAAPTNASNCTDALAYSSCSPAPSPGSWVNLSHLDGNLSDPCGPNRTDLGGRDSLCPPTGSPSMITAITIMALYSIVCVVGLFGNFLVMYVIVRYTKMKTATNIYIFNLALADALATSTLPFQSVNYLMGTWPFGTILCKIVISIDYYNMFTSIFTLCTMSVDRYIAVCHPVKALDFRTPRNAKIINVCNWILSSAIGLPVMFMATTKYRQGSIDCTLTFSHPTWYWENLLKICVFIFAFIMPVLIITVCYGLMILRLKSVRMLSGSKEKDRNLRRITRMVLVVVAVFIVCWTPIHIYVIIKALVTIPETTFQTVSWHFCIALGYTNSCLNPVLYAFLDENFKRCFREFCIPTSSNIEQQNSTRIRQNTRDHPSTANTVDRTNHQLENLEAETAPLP
Method: as §1

CCC[C@@H](NC(=O)c1cccc2c1CC(=O)N2)[C@@H](O)c1cccc(F)c1C [GSK716]
transition midpoint temperature (α1‐antitrypsin): marked increase | Papp at 60 min (P-gp (MDR1); with pgp inhibitor GF120918, read-out: permeability, apical to basal): 24.8 ×10⁻⁶ cm/s | Papp at 60 min (P-gp (MDR1); with pgp inhibitor GF120918, read-out: permeability, basal to apical): 24 ×10⁻⁶ cm/s | IC50 (Cycloxygenase2 (COX2)): > 100 µM | EC50 (OPRM1): > 100 µM
